In patent US8871751B2, “Compositions and methods relating to nuclear hormone and steroid hormone receptors including inhibitors of estrogen receptor alpha-mediated gene expression and inhibition of breast cancer” (The Board of Trustees of the University of Illinois, priority 2008, dated 2014):

Columns and labels:
60 cancer cell lines = settings: independent testing at NCI Developmental Therapeutics Program, cited from earlier work
[1] = biological target: T1, human androgen receptor (AR) binding to flARE (Homo sapiens, UniProt P10275); test: FAMA: inhibition of AR binding to flcARE; settings: binding to HRE, 5 concentrations 0.5-10 μM, sequential method
T1 construct: AR assays contained 1 nM flcARE and 50 nM full-length wild-type AR; FLAG; made in house
T1 sequence (P10275 1-920): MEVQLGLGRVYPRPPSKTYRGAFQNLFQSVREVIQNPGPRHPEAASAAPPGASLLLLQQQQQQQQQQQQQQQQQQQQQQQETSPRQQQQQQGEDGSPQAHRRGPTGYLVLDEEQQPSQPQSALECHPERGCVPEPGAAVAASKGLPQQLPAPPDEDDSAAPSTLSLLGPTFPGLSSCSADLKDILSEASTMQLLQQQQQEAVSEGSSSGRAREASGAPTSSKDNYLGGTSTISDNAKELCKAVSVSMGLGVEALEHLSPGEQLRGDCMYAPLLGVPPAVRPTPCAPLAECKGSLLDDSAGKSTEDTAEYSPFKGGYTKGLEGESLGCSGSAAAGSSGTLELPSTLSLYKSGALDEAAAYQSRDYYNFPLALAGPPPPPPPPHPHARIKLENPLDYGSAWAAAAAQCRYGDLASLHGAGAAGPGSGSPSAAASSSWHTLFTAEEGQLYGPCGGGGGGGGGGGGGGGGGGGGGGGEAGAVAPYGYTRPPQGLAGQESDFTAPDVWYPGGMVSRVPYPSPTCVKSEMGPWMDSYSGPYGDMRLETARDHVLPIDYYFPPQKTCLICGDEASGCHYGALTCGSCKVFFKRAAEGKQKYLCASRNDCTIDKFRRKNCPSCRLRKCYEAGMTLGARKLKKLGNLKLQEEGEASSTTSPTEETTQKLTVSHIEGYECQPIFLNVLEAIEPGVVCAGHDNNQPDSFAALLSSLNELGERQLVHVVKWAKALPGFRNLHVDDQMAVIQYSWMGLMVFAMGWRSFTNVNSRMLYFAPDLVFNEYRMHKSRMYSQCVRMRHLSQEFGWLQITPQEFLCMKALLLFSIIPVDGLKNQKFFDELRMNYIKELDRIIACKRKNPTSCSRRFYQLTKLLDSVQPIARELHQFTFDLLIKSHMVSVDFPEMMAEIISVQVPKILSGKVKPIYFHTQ
Method: Dose response curves for selected compounds were carried out as described for the HTS screen except that each well contained the indicated concentration of test compound. PR assays were carried out in the same buffer used for ERα assays and contained 1 nM flcPRE and 11 nM PR-B and 100 nM progesterone. The buffer used for AR was similar but also contained 5 μM ZnCl, 5 mM NaF, 0.6 μM CHAPS and 100 nM dihydrotestosterone. AR assays contained 1 nM flcARE and 50 nM full-length wild-type AR.
Specificity was evaluated in dose-response studies by quantitative FAMA using purified full-length human PR binding to a fluorescein-labeled progesterone/glucocorticoid response element (flPRE) and full-length human androgen receptor (AR) binding to a fluorescein-labeled androgen response element (flARE).

| SMILES | effect on growth of a panel of 60 cancer cell lines (60 cancer cell lines; 10 μM) | effect on breast and ovarian cell growth (60 cancer cell lines; up to 100 μM) | IC50 [1] |
| --- | --- | --- | --- |
| Cn1c(=S)c2[nH]c(SCCCC(=O)c3ccc(F)cc3)nc2n(C)c1=O [TPSF, Butyrophenone, p-fluoro-4-(1,2,3,6,-tetrahydro-1,3-dimethyl-2-oxo-6-thionopurin-8-ylthio)] | does not inhibit growth | – | – |
| Cn1c(=O)c2nc(CSCc3ccccc3)[nH]c2n(C)c1=O [Compound 95910, 8-Benzylsulfanylmethyl-1,3-dimethyl-3,7-dihydro-purine-2,6-dione] | – | did not inhibit | 7.6 µM |
| CN1CCC(C#N)c2ccccc21 (centres unmarked) [Compound 1529] | – | – | 5.2 µM |
| CN(C)CCCn1c2c3ccccc3ccc2c2oc(=O)c3ccccc3c21 [Compound 638432] | – | – | 5 µM |
